Measurements reported in patent US6087363A, “Use of imidazole and indole compounds as inhibitors of nitric oxide synthase” (Harbor Branch Oceanographic Institution, Inc., priority 1999, dated 2000).

Legend:
[1] = test system: rat cerebral bNOS; assay: inhibition of bNOS activity (nitrite production, Griess reaction); format: biochemical; conditions: for bNOS Inhibition, % Inhib: 15 min, average of 4 wells; for IC50: approximately, FIG. 1; for specificity/selectivity of bNOS inhibition: at the concentrations tested, conclusion in words
Method: Rat cerebral bNOS in working buffer was incubated with L-arginine and the nitrites produced after 15 minutes were measured using the Griess reaction. Results are presented as the % inhibition of bNOS activity as compared to a negative control (0% inhibition) and positive control (100% inhibition). Each point represents the average inhibition ± standard deviation of 4 wells.
Marine-derived imidazole and indole containing compounds were tested for their ability to inhibit rat cerebral NOS at a concentration range of 1.0 to 50 μM.
Evaluation of activity of bNOS was performed by measuring nitrite production using the Griess reaction (Greenberg, S. S., J. Xie, J. J. Spitzer, J. F. Wang, J. Lancaster, M. B. Grisham, D. R. Powers, T. D. Giles [1995] Life Sci. 57:1949-1961) following an incubation of purified bNOS with L-arginine according to the methods of Ohshima et al. (Ohshima, H., S. Oguchi, H. Adachi, S. Iida, H. Suzuki, T. Sugimura, H. Esumi [1992] Biochem. Biophys. Res. Comm. 183:238-244). All reactions were carried out in 96 well microtiter plates. Briefly, imidazole and indole compounds were tested in reaction buffer (80 mM HEPES, pH 7.3; 1.0 mM EDTA; 1.5 mM CaCl2) containing calmodulin (330 units/ml; Sigma Chemical Co.), dithiothreitol (1.3 mM), tetrahydrobiopterin (66 μM; Sigma), flavin adenine dinucleotide (16 μM; Sigma), and bovine brain nitric oxide synthase (1.67 units/ml; Sigma). The solutions were mixed and equilibrated at 37° C. for 2 minutes prior to the addition of L-arginine (113 μM; Sigma) and NADPH (200 μM; Sigma). Final reaction volume was 150 μl per well. The enzymatic reaction occurred at 37° C. for 15 minutes and nitrite formation detected by the addition of 100 μl of Greiss's reagent (1% sulfanilamide, 0.15% n-1-(naphthyl)-ethylenediamine dihydrochloride, 2.5% phosphoric acid; Sigma) and the color intensity determined by spectrophotometric absorbance at 540 nm (Spectra II; Tecan US Inc., Durham, N.C.).

[2] = biological target: T1, iNOS (murine macrophage RAW 264.7 cells) (Mus musculus, UniProt P29477); assay: inhibition of whole cell iNOS activity in LPS/IFN-γ stimulated RAW 264.7 cells (nitrites, Griess reaction); format: cell-based; conditions: RAW264.7, 24 hours, average of 4 wells, read-out: iNOS Inhibition, % Inhibit
T1 construct: host or cells: RAW 264.7
Method: Resultant nitrites in the TCM were measured by the Griess reaction and compared to stimulated cells incubated in the absence of test compound (0% inhibition) and unstimulated cells (100% inhibition). Each point represents the average inhibition of 4 wells±standard deviation.
Inhibition of whole cell iNOS activity by hamacanthin-A, dragmacidin and dragmacidin-D was tested to determine the specificity of the NOS inhibitory actions of these compounds.
RAW 264.7 cells were obtained from the American Type Culture Collection (Rockville, Md.) and maintained in tissue culture medium (TCM) (RPMI 1640 medium containing 100 U/ml penicillin, 100 μg/ml streptomycin, 60 μg/ml L-glutamine, 18 mM HEPES, 0.05 mg/ml gentamicin; Life Technologies, Gaithersburg, Md.) and supplemented with 10% rehatuin fetal bovine serum (Intergen Co., Purchase, N.Y.). Cells were subcultured at 3-4 day intervals, and used within 20 passages from the initial stock culture.
Test compounds were diluted in ethanol, aliquoted into appropriate wells of a 96 well microtiter plate and allowed to air dry for 1 hour at room temperature. RAW 264.7 cells were then subcultured into each well at a density of 5×10^4 cells/well in 200 μl of TCM containing lipopolysaccharide (1 ng/ml; Sigma) and interferon-γ (2 units/ml; PharMingen, San Diego, Calif.). Plates were incubated at 37° C., 5% CO2 for 24 hours. 150 μl of the TCM from each well was transferred to a second microtiter plate, 100 μl Griess reagent added to this TCM and the color intensity determined as above. Viability of the cells was determined by the methods of Mossman (Mossman, T. [1983] J. Immunol. Methods 65:55-63). Briefly, 150 μl of TCM containing 3-[4,5-dimethylthiazol-2-yl]-2,5-diphenyltetrazolium bromide (MTT, 2.5 mg/ml; Sigma) was added to each well containing the RAW 264.7 cells and incubated at 37° C., 5% CO2 for 3 hours. The medium was removed from all wells and replaced with 200 μl of acidified isopropyl alcohol (0.2% HCl). The plates were shaken for 15 minutes and the presence of the blue formazan was detected using a Spectra II spectrophotometer set at 570 nm and with a 650 nm reference filter.

[3] = biological target: calcineurin (Homo sapiens, UniProt Q08209); assay: inhibition of calcineurin activity (PNPP dephosphorylation); format: biochemical; conditions: for inhibition of calcineurin activity: at concentrations below 50 μM; for IC50: PNPP substrate, 30° C., 1 hour; for potency on calcineurin compared with bNOS: comparison of IC50 for calcineurin and bNOS
Method: Inhibition of calcineurin, a calmodulin-dependent enzyme (Klee, C. B., H. Ren, X. Wang [1998] J. Biol. Chem. 273:13367-13370), by marine-derived imidazoles and indoles was tested as an indirect means of assessing the effect of these compounds on calmodulin. […] Neither hamacanthin-A nor dragmacidin were able to inhibit calcineurin activity by more than 33% at concentrations below 50 μM.
Calcineurin activity was measured by the colorimetric method based on the dephosphorylation of p-nitrophenyl phosphate (PNPP) (Greenberg, S. S., J. Xie, J. J. Spitzer, J. F. Wang, J. Lancaster, M. B. Grisham, D. R. Powers, T. D. Giles [1995] Life Sci. 57:1949-1961) in a buffer of 0.5 mM MnCl2, 1 mM dithiothreitol, 50 mM tris base (pH 7.5), 0.05 mM CaCl2, and 10 μg/ml calmodulin (Sigma). Briefly, marine-derived compounds in ethanol were transferred to 96-well plates, air dried and resuspended in the working buffer. Calcineurin was added to a final concentration of 2.75 μg protein/ml and the enzyme allowed to equilibrate at 30° C. for 10 minutes prior to the addition of substrate. PNPP was added (final concentration≈50 mM) and the reaction mixture incubated at 30° C. for 1 hour. The optical density was measured at 405 nm in a Spectra II spectrophotometer.

| SMILES | bNOS Inhibition, % Inhib ([1]; 1 μM) [%] | bNOS Inhibition, % Inhib ([1]; 5 μM) [%] | bNOS Inhibition, % Inhib ([1]; 10 μM) [%] | bNOS Inhibition, % Inhib ([1]; 50 μM) [%] | IC50 [1] [µM] | specificity/selectivity of bNOS inhibition [1] | inhibition at 2.5 µM [2] [%] | inhibition at 5 µM [2] [%] | inhibition at 10 µM [2] [%] | inhibition at 25 µM [2] [%] | inhibition at 50 µM [2] [%] | inhibition of calcineurin activity [3] [%] | IC50 [3] [µM] | potency on calcineurin compared with bNOS [3] | inhibitory effects on the production of NO (bNOS) ([1]; 1.0 to 50 μM) |
| --- | --- | --- | --- | --- | --- | --- | --- | --- | --- | --- | --- | --- | --- | --- | --- |
| CN1C[C@H](c2c[nH]c3c(Br)c(Br)cc(O)c23)NC[C@H]1c1c[nH]c2cc(Br)ccc12 (relative stereo) [Dragmacidin, dragmacidin] | 38.94 | 3.54 | 32.74 | 90.27 | ~20 | able to specifically block the activity of bNOS | -3.94 | -8.44 | -6.23 | 3.16 | 15.8 | ≤ 33 |  |  |  |
| CC(c1cnc(N)[nH]1)c1ccc(O)c2[nH]cc(-c3cnc(-c4c[nH]c5cc(Br)ccc45)c(=O)[nH]3)c12 (stereo not drawn) [Dragmacidin-D, dragmacidin-D] | 16.89 | 74.22 | 96.44 | 99.56 | ~4 | able to specifically block the activity of bNOS | -3.55 | -3.42 | -0.61 | 2.34 | 26.9 |  | 10 | a more potent inhibitor of bNOS |  |
| O=C1NC(c2c[nH]c3cc(Br)ccc23)CN=C1c1c[nH]c2cc(Br)ccc12 (stereo not drawn) [Hamacanthin-A, hamacanthin-A] | 35.42 | 43.33 | 75.42 | 99.58 | ~7.5 | able to specifically block the activity of bNOS | 2.6 | -0.61 | 0.69 | 0.65 | 5.54 | ≤ 33 |  |  |  |
| Brc1ccc2c(-c3c[nH]c(-c4c[nH]c5ccccc45)n3)c[nH]c2c1 [Nortopsentin-C, nortopsentin-C] | 20.16 | 9.88 | 16.05 | 98.77 | ~27 | not able to selectively inhibit rat cerebral bNOS |  |  |  |  |  |  | 11.4 | a concentration lower than its IC50 for bNOS |  |
| O=C(c1nc(-c2c[nH]c3ccccc23)c[nH]1)c1c[nH]c2cc(O)ccc12 [Topsentin, topsentin] | 5.08 | 5.47 | -0.39 | 22.66 |  | not able to selectively inhibit rat cerebral bNOS |  |  |  |  |  |  |  |  | minimal inhibitory effects |
